Reference: the NIST ThermoML archive (doi:10.1016/j.jct.2013.12.025)
± gives the expanded uncertainty stated by the source.

Assay: xn = mol fraction of the nth substance listed
Settings: 101 kPa, Liquid, Vibrating tube method

C=C[Si](C)(C)O[Si](C)(C)C=C [1,3-diethenyl-1,1,3,3-tetramethyldisiloxane] + CCc1ccccc1
mass density [kg/m3]
Settings	283.15 K	288.15 K	293.15 K	298.15 K	303.15 K
x1 = 0.0501	871.7 ± 1	867.28 ± 1	862.84 ± 1	858.47 ± 1	854.01 ± 1
x1 = 0.1001	867.93 ± 1	863.46 ± 1	858.98 ± 1	854.58 ± 1	850.08 ± 1
x1 = 0.1499	864.35 ± 1	859.85 ± 1	855.33 ± 1	850.89 ± 1	846.35 ± 1
x1 = 0.2001	860.93 ± 1	856.41 ± 1	851.85 ± 1	847.37 ± 1	842.8 ± 1
x1 = 0.25	857.68 ± 1	853.12 ± 1	848.52 ± 1	844.02 ± 1	839.42 ± 1
x1 = 0.3	854.59 ± 1	850 ± 1	845.38 ± 1	840.85 ± 1	836.21 ± 1
x1 = 0.3499	851.64 ± 1	847.02 ± 1	842.37 ± 1	837.8 ± 1	833.13 ± 1
x1 = 0.4	848.82 ± 1	844.17 ± 1	839.49 ± 1	834.91 ± 1	830.22 ± 1
x1 = 0.4501	846.13 ± 1	841.46 ± 1	836.76 ± 1	832.14 ± 1	827.42 ± 1
x1 = 0.5	843.56 ± 1	838.86 ± 1	834.13 ± 1	829.5 ± 1	824.76 ± 1
x1 = 0.5503	841.09 ± 1	836.39 ± 1	831.62 ± 1	826.96 ± 1	822.2 ± 1
x1 = 0.6	838.73 ± 1	834.01 ± 1	829.22 ± 1	824.53 ± 1	819.75 ± 1
x1 = 0.6501	836.45 ± 1	831.7 ± 1	826.89 ± 1	822.19 ± 1	817.38 ± 1
x1 = 0.6999	834.3 ± 1	829.53 ± 1	824.71 ± 1	819.97 ± 1	815.14 ± 1
x1 = 0.7502	832.18 ± 1	827.39 ± 1	822.55 ± 1	817.79 ± 1	812.94 ± 1
x1 = 0.8001	830.16 ± 1	825.33 ± 1	820.48 ± 1	815.7 ± 1	810.84 ± 1
x1 = 0.85	828.22 ± 1	823.42 ± 1	818.54 ± 1	813.71 ± 1	808.83 ± 1
x1 = 0.8999	826.37 ± 1	821.53 ± 1	816.65 ± 1	811.81 ± 1	806.91 ± 1
x1 = 0.9498	824.65 ± 1	819.79 ± 1	814.89 ± 1	810.02 ± 1	805.11 ± 1
x1 = 1	822.79 ± 1	817.88 ± 1	812.97 ± 1	808.11 ± 1	803.18 ± 1

C=C[Si](C)(C)O[Si](C)(C)C=C [1,3-diethenyl-1,1,3,3-tetramethyldisiloxane] + COc1ccccc1
mass density [kg/m3]
Settings	283.15 K	288.15 K	293.15 K	298.15 K	303.15 K
x1 = 0.0501	987.07 ± 1	982.37 ± 1	977.74 ± 1	973.02 ± 1	968.3 ± 1
x1 = 0.1	972.12 ± 1	967.42 ± 1	962.75 ± 1	958.01 ± 1	953.27 ± 1
x1 = 0.15	958.3 ± 1	953.58 ± 1	948.89 ± 1	944.14 ± 1	939.38 ± 1
x1 = 0.2004	945.4 ± 1	940.66 ± 1	935.96 ± 1	931.19 ± 1	926.42 ± 1
x1 = 0.2499	933.62 ± 1	928.87 ± 1	924.15 ± 1	919.36 ± 1	914.57 ± 1
x1 = 0.3	922.54 ± 1	917.77 ± 1	913.04 ± 1	908.24 ± 1	903.45 ± 1
x1 = 0.35	912.24 ± 1	907.47 ± 1	902.73 ± 1	897.91 ± 1	893.1 ± 1
x1 = 0.3997	902.67 ± 1	897.88 ± 1	893.12 ± 1	888.29 ± 1	883.45 ± 1
x1 = 0.4499	893.63 ± 1	888.81 ± 1	884.04 ± 1	879.2 ± 1	874.35 ± 1
x1 = 0.5001	885.14 ± 1	880.31 ± 1	875.53 ± 1	870.68 ± 1	865.82 ± 1
x1 = 0.5499	877.24 ± 1	872.4 ± 1	867.62 ± 1	862.75 ± 1	857.88 ± 1
x1 = 0.6	869.73 ± 1	864.89 ± 1	860.09 ± 1	855.21 ± 1	850.33 ± 1
x1 = 0.6499	862.68 ± 1	857.84 ± 1	853.04 ± 1	848.15 ± 1	843.25 ± 1
x1 = 0.6999	856.02 ± 1	851.16 ± 1	846.35 ± 1	841.46 ± 1	836.55 ± 1
x1 = 0.7499	849.72 ± 1	844.85 ± 1	840.03 ± 1	835.13 ± 1	830.23 ± 1
x1 = 0.8	843.72 ± 1	838.85 ± 1	834.02 ± 1	829.11 ± 1	824.19 ± 1
x1 = 0.8499	838.07 ± 1	833.19 ± 1	828.35 ± 1	823.44 ± 1	818.52 ± 1
x1 = 0.8998	832.69 ± 1	827.81 ± 1	822.98 ± 1	818.06 ± 1	813.14 ± 1
x1 = 0.9499	827.56 ± 1	822.67 ± 1	817.83 ± 1	812.91 ± 1	808 ± 1
x1 = 1	822.67 ± 1	817.77 ± 1	812.92 ± 1	808 ± 1	803.07 ± 1

C=C[Si](C)(C)O[Si](C)(C)C=C [1,3-diethenyl-1,1,3,3-tetramethyldisiloxane] + Clc1ccccc1
mass density [kg/m3]
Settings	283.15 K	288.15 K	293.15 K	298.15 K	303.15 K
x1 = 0.05	1088.46 ± 1	1083.08 ± 1	1077.71 ± 1	1072.36 ± 1	1066.76 ± 1
x1 = 0.0998	1062.49 ± 1	1057.12 ± 1	1051.77 ± 1	1046.38 ± 1	1040.76 ± 1
x1 = 0.15	1038.61 ± 1	1033.26 ± 1	1027.97 ± 1	1022.56 ± 1	1017.01 ± 1
x1 = 0.1996	1017.1 ± 1	1011.78 ± 1	1006.49 ± 1	1001.12 ± 1	995.49 ± 1
x1 = 0.25	997.1 ± 1	991.8 ± 1	986.55 ± 1	981.23 ± 1	975.62 ± 1
x1 = 0.2999	978.91 ± 1	973.63 ± 1	968.41 ± 1	963.12 ± 1	957.62 ± 1
x1 = 0.35	962.04 ± 1	956.8 ± 1	951.57 ± 1	946.3 ± 1	940.79 ± 1
x1 = 0.3999	946.48 ± 1	941.25 ± 1	936.1 ± 1	930.87 ± 1	925.47 ± 1
x1 = 0.4496	932.12 ± 1	926.93 ± 1	921.78 ± 1	916.57 ± 1	911.17 ± 1
x1 = 0.4999	918.61 ± 1	913.45 ± 1	908.32 ± 1	903.14 ± 1	897.77 ± 1
x1 = 0.5499	906.09 ± 1	900.94 ± 1	895.84 ± 1	890.68 ± 1	885.33 ± 1
x1 = 0.6	894.37 ± 1	889.27 ± 1	884.19 ± 1	879.04 ± 1	873.73 ± 1
x1 = 0.6469	884.06 ± 1	878.98 ± 1	873.94 ± 1	868.82 ± 1	863.55 ± 1
x1 = 0.6998	873.18 ± 1	868.11 ± 1	863.11 ± 1	858.02 ± 1	852.81 ± 1
x1 = 0.7499	863.47 ± 1	858.44 ± 1	853.45 ± 1	848.41 ± 1	843.25 ± 1
x1 = 0.7997	854.39 ± 1	849.39 ± 1	844.44 ± 1	839.42 ± 1	834.3 ± 1
x1 = 0.8499	845.78 ± 1	840.8 ± 1	835.87 ± 1	830.88 ± 1	825.82 ± 1
x1 = 0.8996	837.7 ± 1	832.75 ± 1	827.85 ± 1	822.88 ± 1	817.86 ± 1
x1 = 0.9497	830 ± 1	825.08 ± 1	820.22 ± 1	815.27 ± 1	810.3 ± 1
x1 = 1	822.68 ± 1	817.77 ± 1	812.94 ± 1	808.01 ± 1	803.06 ± 1
